In assay [1] the test system is THP-1. Kind of assay: Antiinflammatory activity in human THP1 cells assessed as inhibition of LPS-stimulated IL-6 production at 10 uM incubated for 30 mins prior to LPS-challenge measured 24 hrs post LPS-challenge by ELISA. It counts as functional.
The test system of assay [2] is Staphylococcus aureus. In words: Antibacterial activity against Staphylococcus aureus MTCC 96 after 24 hrs by agar well diffusion method. It counts as functional. The conditions noted are these: MTCC 96, 24 h. In general terms: Agar diffusion results depend on both activity and mobility in agar.
Assay [3] concerns Bacillus subtilis. In words: Antibacterial activity against Bacillus subtilis MTCC 441 after 24 hrs by agar well diffusion method. It counts as functional. The note with it: MTCC 441, 24 h.
In assay [4] the test system is Escherichia coli. Kind of assay: Antibacterial activity against Escherichia coli MTCC 443 after 24 hrs by agar well diffusion method. It counts as functional. The note with it: MTCC 443, 24 h.
Assay [5] deals with Aspergillus flavus. Kind of assay: Antifungal activity against Aspergillus flavus MTCC 277 after 2 to 3 days by agar well diffusion method. It counts as functional.
Assay [6] concerns THP-1. Kind of assay: Antiinflammatory activity in human THP1 cells assessed as inhibition of LPS-stimulated TNFalpha production at 10 uM incubated for 30 mins prior to LPS-challenge measured 24 hrs post LPS challenge by ELISA. It is filed as functional. (In an ELISA, binding on a coated surface is turned into a signal by an enzyme label.)
Assay [7] deals with Candida albicans. In words: Antifungal activity against Candida albicans MTCC 227 after 2 to 3 days by agar well diffusion method. It is filed as functional.
Assay [8] concerns Fusarium solani. In words: Antifungal activity against Fusarium solani MTCC 350 after 2 to 3 days by agar well diffusion method. It is filed as functional.
Assay [9] concerns Aspergillus niger. Kind of assay: Antifungal activity against Aspergillus niger MTCC 281 after 2 to 3 days by agar well diffusion method. It is filed as functional.
Assay [10] deals with Salmonella typhimurium. Kind of assay: Antibacterial activity against Salmonella typhimurium MTCC 98 after 24 hrs by agar well diffusion method. It counts as functional, Salmonella enterica subsp. enterica serovar Typhimurium. The note with it: Salmonella enterica, MTCC 98, 24 h.
The test system of assay [11] is Aspergillus niger. Kind of assay: Antifungal activity against Aspergillus niger MTCC 281 up to 200 ug/mL after 2 to 3 days by agar well diffusion method. It counts as functional, organism-based.

In brackets after ≈: the same amount, converted by molar mass. Activity calls are given as the source filed them. The calls are words filed in the database; no cut-off is given here.

As a reminder, the inhibition is the percentage by which the read-out fell short of the control. In general, MIC refers to the lowest concentration that inhibits growth of the organism. Read a high MIC as a need for much substance. Consider `COc1ccc(C2=NN(C(C)=O)C(c3ccc(NS(=O)(=O)c4ccc(Br)cc4)cc3)C2)cc1OC` (configuration not stated), for which the inhibition at 10 µM in assay [1] and in assay [6] was 0% each time. Besides, the MIC in assay [2] stood at 30 µg/mL (≈ 53.7 µM); in [3] it was 65 µg/mL (≈ 116 µM); in [4], 30 µg/mL (≈ 53.7 µM); in [5], 40 µg/mL (≈ 71.6 µM); in assay [7], 25 µg/mL (≈ 44.8 µM); in [8], 15 µg/mL (≈ 26.9 µM). In addition, the values for the MIC in assay [9] and in assay [10] were 15 µg/mL (≈ 26.9 µM) and 30 µg/mL (≈ 53.7 µM), respectively.

On to `COc1ccc(C2=NN(C(C)=O)C(c3ccc(NC(=O)Nc4ccccc4F)cc3)C2)cc1OC` (configuration not stated), for which the results for the inhibition at 10 µM in [1] and in [6] were 93% and 85%, respectively. For the same compound, the MIC in [2] was 60 µg/mL (≈ 126 µM); in [3], 80 µg/mL (≈ 168 µM); in [4] it was 45 µg/mL (≈ 94.4 µM); in [5], 80 µg/mL (≈ 168 µM); in [7] it was 80 µg/mL (≈ 168 µM); in [8], 90 µg/mL (≈ 189 µM). For the same compound, the minimum inhibitory concentration (MIC) in [9] and in assay [10] was 80 µg/mL (≈ 168 µM) in each case.

`O=C(O)c1cn(C2CC2)c2cc(N3CCNCC3)c(F)cc2c1=O` [CIPROFLOXACIN]: the MIC in assay [2] was 20 µg/mL (≈ 60.4 µM); in [3], 15 µg/mL (≈ 45.3 µM); in assay [4], 15 µg/mL (≈ 45.3 µM); in assay [10] it was 20 µg/mL (≈ 60.4 µM).

Regarding `COc1cccc(NC(=S)Nc2ccc(C3CC(c4ccc(OC)c(OC)c4)=NN3C(C)=O)cc2)c1` (configuration not stated), the results for the inhibition at 10 µM in assay [1] and in assay [6] were 26% and 11%, respectively. Moreover, the MIC in assay [2] was found to be 55 µg/mL (≈ 109 µM); in [3] it was 90 µg/mL (≈ 178 µM); in [4], 70 µg/mL (≈ 139 µM); in [5], 95 µg/mL (≈ 188 µM); in assay [7], 80 µg/mL (≈ 159 µM); in [9] it was 95 µg/mL (≈ 188 µM). In addition, inhibition of growth in assay [10] (MIC) required 90 µg/mL (≈ 178 µM).

Take `COc1ccc(C2=NN(C(C)=O)C(c3ccc(NS(=O)(=O)c4cc(F)ccc4C)cc3)C2)cc1OC` (configuration not stated): the inhibition at 10 µM in assay [1] and in assay [6] was 0% in each case. The MIC is 55 µg/mL (≈ 108 µM) in assay [2]; 20 µg/mL (≈ 39.1 µM) in assay [3]; 20 µg/mL (≈ 39.1 µM) in assay [4]; 20 µg/mL (≈ 39.1 µM) in assay [5]; 30 µg/mL (≈ 58.6 µM) in assay [7]; 20 µg/mL (≈ 39.1 µM) in assay [8]. Besides, the MIC was determined as 60 µg/mL (≈ 117 µM) in assay [9] and 40 µg/mL (≈ 78.2 µM) in assay [10].

On to `COc1ccc(NC(=S)Nc2ccc(C3CC(c4ccc(OC)c(OC)c4)=NN3C(C)=O)cc2)cc1` (configuration not stated), for which the outcome in [11] was inactive. The inhibition at 10 µM in assay [1] was found to be 10%; in assay [6], 3%. Also, the MIC worked out at 45 µg/mL (≈ 89.2 µM) in assay [2]; 65 µg/mL (≈ 129 µM) in assay [3]; 20 µg/mL (≈ 39.6 µM) in assay [4]; 90 µg/mL (≈ 178 µM) in assay [5]; 90 µg/mL (≈ 178 µM) in [7]; 90 µg/mL (≈ 178 µM) in assay [8]. The MIC in assay [10] stood at 35 µg/mL (≈ 69.4 µM).

On to `Clc1ccc(COC(Cn2ccnc2)c2ccc(Cl)cc2Cl)c(Cl)c1` (configuration not stated) [MICONAZOLE], for which the MIC in assay [5] was determined as 20 µg/mL (≈ 48.1 µM); in assay [7], 20 µg/mL (≈ 48.1 µM); in assay [8], 15 µg/mL (≈ 36 µM); in [9] it was 15 µg/mL (≈ 36 µM).

Turning to `COc1ccc(C2=NN(C(C)=O)C(c3ccc(NC(=O)Nc4ccccc4OC(F)(F)F)cc3)C2)cc1OC` (configuration not stated), the inhibition at 10 µM in assay [1] is 75%; in [6], 58%. Also, the MIC came to 55 µg/mL (≈ 101 µM) in assay [2]; 40 µg/mL (≈ 73.7 µM) in assay [3]; 40 µg/mL (≈ 73.7 µM) in assay [4]; 30 µg/mL (≈ 55.3 µM) in assay [5]; 40 µg/mL (≈ 73.7 µM) in [7]; 60 µg/mL (≈ 111 µM) in assay [8]. Also, the MIC in assay [9] came to 75 µg/mL (≈ 138 µM); in assay [10], 60 µg/mL (≈ 111 µM).

With `COc1ccc(C2=NN(C(C)=O)C(c3ccc(NS(=O)(=O)c4ccc(C)cc4)cc3)C2)cc1OC` (configuration not stated), the inhibition at 10 µM in assay [1] and in assay [6] was 0% each time. Also, the MIC came to 90 µg/mL (≈ 182 µM) in assay [2]; 90 µg/mL (≈ 182 µM) in assay [3]; 75 µg/mL (≈ 152 µM) in assay [4]; 90 µg/mL (≈ 182 µM) in assay [5]; 70 µg/mL (≈ 142 µM) in assay [7]; 65 µg/mL (≈ 132 µM) in assay [8]. Further, the MIC in assay [9] and in assay [10] was 90 µg/mL (≈ 182 µM) throughout.

As for `COc1ccc(C2=NN(C(C)=O)C(c3ccc(NC(=S)Nc4ccc(C#N)cc4)cc3)C2)cc1OC` (configuration not stated), the inhibition at 10 µM was 21% in [1] and 0% in assay [6]. The MIC is 60 µg/mL (≈ 120 µM) in assay [2]; 35 µg/mL (≈ 70.1 µM) in assay [3]; 30 µg/mL (≈ 60 µM) in [4]; 35 µg/mL (≈ 70.1 µM) in assay [5]; 55 µg/mL (≈ 110 µM) in assay [7]; 20 µg/mL (≈ 40 µM) in assay [8]. Moreover, the MIC turned out to be 20 µg/mL (≈ 40 µM) in assay [9] and 45 µg/mL (≈ 90.1 µM) in [10].

On to `COc1ccc(C2=NN(C(C)=O)C(c3ccc(NS(=O)(=O)c4ccccc4C#N)cc3)C2)cc1OC` (configuration not stated), for which the inhibition at 10 µM in [1] was 31%; in assay [6], 10%. In addition, the MIC was 80 µg/mL (≈ 159 µM) in [2]; 65 µg/mL (≈ 129 µM) in assay [3]; 90 µg/mL (≈ 178 µM) in assay [4]; 70 µg/mL (≈ 139 µM) in [5]; 65 µg/mL (≈ 129 µM) in assay [7]; 80 µg/mL (≈ 159 µM) in [8]. Also, the MIC in [9] came to 40 µg/mL (≈ 79.3 µM); in assay [10] it was 90 µg/mL (≈ 178 µM).

As to `COc1ccc(C2=NN(C(C)=O)C(c3ccc(NS(=O)(=O)c4ccc(OC(F)(F)F)cc4)cc3)C2)cc1OC` (configuration not stated), the results for the inhibition at 10 µM in assay [1] and in assay [6] were 30% and 8%, respectively. Moreover, the minimal inhibitory concentration (MIC) in assay [2] worked out at 20 µg/mL (≈ 35.5 µM); in assay [3] it was 45 µg/mL (≈ 79.9 µM); in [4], 15 µg/mL (≈ 26.6 µM); in assay [5], 20 µg/mL (≈ 35.5 µM); in [7] it was 45 µg/mL (≈ 79.9 µM); in [8] it was 35 µg/mL (≈ 62.1 µM). Moreover, the MIC stood at 25 µg/mL (≈ 44.4 µM) in assay [9] and 65 µg/mL (≈ 115 µM) in assay [10].

For the compound `COc1ccc(C2=NN(C(C)=O)C(c3ccc(NC(=O)Nc4ccc(C(F)(F)F)cc4Cl)cc3)C2)cc1OC` (configuration not stated), the inhibition at 10 µM was determined as 8% in assay [1] and 3% in [6]. In addition, the MIC in assay [2] stood at 35 µg/mL (≈ 62.4 µM); in assay [3], 60 µg/mL (≈ 107 µM); in assay [4], 45 µg/mL (≈ 80.2 µM); in assay [5], 20 µg/mL (≈ 35.7 µM); in assay [7] it was 55 µg/mL (≈ 98 µM); in assay [8], 20 µg/mL (≈ 35.7 µM). Moreover, the MIC in assay [9] came out at 35 µg/mL (≈ 62.4 µM); in assay [10] it was 80 µg/mL (≈ 143 µM).

Take `COc1ccc(C2=NN(C(C)=O)C(c3ccc(NC(=O)Nc4ccc(C(C)C)cc4)cc3)C2)cc1OC` (configuration not stated): the inhibition at 10 µM stood at 16% in assay [1] and 11% in assay [6]. Also, the MIC in [2] is 30 µg/mL (≈ 59.9 µM); in [3] it was 40 µg/mL (≈ 79.9 µM); in [4] it was 30 µg/mL (≈ 59.9 µM); in [5] it was 20 µg/mL (≈ 40 µM); in [7], 20 µg/mL (≈ 40 µM); in assay [8], 20 µg/mL (≈ 40 µM). Besides, the MIC came to 40 µg/mL (≈ 79.9 µM) in assay [9] and 55 µg/mL (≈ 110 µM) in assay [10].

As for `COc1ccc(C2=NN(C(C)=O)C(c3ccc(NC(=O)Nc4ccc(OC(F)(F)F)cc4)cc3)C2)cc1OC` (configuration not stated), the inhibition at 10 µM in assay [1] was determined as 11%; in assay [6] it was 8%. For the same compound, the MIC in assay [2] was found to be 30 µg/mL (≈ 55.3 µM); in assay [3], 20 µg/mL (≈ 36.9 µM); in assay [4], 25 µg/mL (≈ 46.1 µM); in assay [5], 20 µg/mL (≈ 36.9 µM); in assay [7], 25 µg/mL (≈ 46.1 µM); in [8], 20 µg/mL (≈ 36.9 µM). Also, the MIC in [9] turned out to be 35 µg/mL (≈ 64.5 µM); in assay [10], 45 µg/mL (≈ 82.9 µM).

Consider `COc1ccc(C2=NN(C(C)=O)C(c3ccc(NC(=O)Nc4ccccc4C(F)(F)F)cc3)C2)cc1OC` (configuration not stated), for which the inhibition at 10 µM is 80% in [1] and 61% in [6]. The minimum inhibitory concentration (MIC) in assay [2] turned out to be 75 µg/mL (≈ 142 µM); in [3], 90 µg/mL (≈ 171 µM); in [4], 60 µg/mL (≈ 114 µM); in [5], 80 µg/mL (≈ 152 µM); in assay [7], 80 µg/mL (≈ 152 µM); in assay [8] it was 75 µg/mL (≈ 142 µM). Moreover, the minimal inhibitory concentration (MIC) in [9] and in assay [10] was 90 µg/mL (≈ 171 µM) each time.

These data come from ChEMBL document CHEMBL2157914, “Synthesis, anti-inflammatory and antimicrobial evaluation of novel 1-acetyl-3,5-diaryl-4,5-dihydro (1H) pyrazole derivatives bearing urea, thiourea and sulfonamide moieties” (2012).
